These results are taken from patent US7018614B2, “Stabilization of radiopharmaceuticals labeled with 18-F” (Eastern Isotopes, Inc., priority 2002, dated 2006).

A short description of the series: Stability of FDG solution against radiolysis: Radio Chemical Purity (RCP) by TLC after storage. It counts as physicochemical. The protocol: In all experiments, the RCP was determined using a standard Thin Layer Chromatography (TLC) method using 10 cm silica-coated glass plates supplied by Alltech (Deerfield, Ill.). A 95:5 mixture of acetonitrile and water was used as a mobile phase and a TLC plate scanner supplied by Bioscan (Washington, D.C.) was used to measure the radioactivity distribution on the plate. In most cases, the sample size was less than 1 μl.
[…] It should be noted, however, that most of the radiolysis takes place in the first 3–6 hours due to the fact that the radioactivity concentration decreases exponentially over time with a half-life of 1.82 hours. After 6 hours, only about 10% of the radioactivity remains and is probably not sufficient to cause any significant decomposition of the product.
In this experiment, the final product was prepared with an initial activity concentration of 10.8 GBq/ml (292 mCi/ml). […] Samples were kept in tightly sealed vials identical to those used for storage and delivery of FDG to customers. […]
It was added in an amount calculated to result, after dilution with water, in about a 0.05% concentration in the final product.
Samples 1, 2, and 3, each of 2 ml, were taken from the final product. To see if storage conditions affected the results, samples 1 and 2 were stored in vials while sample 3 was stored in a syringe identical to those that are used to deliver FDG to users. […]

Turning to [^18F] 2-Fluoro-2-Deoxy-D-glucose [FDG], the “RCP after decline as a result of radiolysis” value (over a period of less than 12 hours, high activity concentration) was “less than 90%”. The “RCP at the end of production” value (typical value, end of production) is listed as 98–100%.
